From article PMC12728655, “Engineering an Artificial Myxopyronin Derivative with Enhanced Metabolic Stability via Mutasynthesis” (JACS Au, 2025)
Converted amounts (≈) assume the structure as drawn.

What follows are compounds tested on Rif^R-M. tuberculosis H37Rv (assay: microbe, parasite or virus in culture). Conditions: Mycobacterium tuberculosis.
Format: cell-based

SMILES | MIC [µg/mL]
COC(=O)N/C=C/CC[C@@H](C)c1cc(O)c(C(=O)/C(C)=C/C=C(\C)CCC(F)(F)F)c(=O)o1 [MYX (8)] | 1 (≈ 2.12 µM)
CCC/C(C)=C/C=C(\C)C(=O)c1c(O)cc([C@H](C)CC/C=C/NC(=O)OC)oc1=O [MYX A (1), myxopyronins A] | 2 to 4 (≈ 4.79 to 9.58 µM)
CO[C@H]1/C=C/O[C@@]2(C)Oc3c(C)c(O)c4c(O)c(c(/C=N/N5CCN(C)CC5)c(O)c4c3C2=O)NC(=O)/C(C)=C\C=C\[C@H](C)[C@H](O)[C@@H](C)[C@@H](O)[C@@H](C)[C@H](OC(C)=O)[C@@H]1C [rifampin] | > 64
